No end group written: not given here.
What was measured:
Experiment in all cases: biochemical
DRB1*0802 = DRB1*0802 (Homo sapiens, UniProt P01903+P01911, A100R/A103L/A169T/F76Y/H45Y/I96F/K41T/L162R/M171V/P40S/Q125H/Q178H/Q39Y/Q99D/R218S/R42G/S66Y/V115G/W38E); format: binding
DRB1*0901 = DRB1*0901 (Homo sapiens, UniProt P01903+P01911, A100R/A103E/D57H/D86V/F55Y/F60I/F76Y/I96F/K127E/L162R/M171V/P40D/Q125H/Q99R/R33Q/R42F/S133A/S66N/T210M/V115G/W38K/Y107V/Y59G/Y89S); format: binding
DRB1*1302 = DRB1*1302 (Homo sapiens, UniProt P01903+P01911, A100E/A169T/K41T/L162R/M171V/P40S/Q125H/Q178H/Q39Y/Q99D/R42S/S66N/T262R/V115G/W38E/Y61H); format: binding
DRB4*0101 = DRB4*0101 (Homo sapiens, UniProt P01903+P13762, G164S); format: binding
DRB1*1501 = DRB1*1501 (Homo sapiens, UniProt P01903+P01911); format: binding
DRB3*0101 = DRB3*0101 (Homo sapiens, UniProt P01903+P79483); format: binding
DRB1*1101 = DRB1*1101 (Homo sapiens, UniProt P01903+P01911, A100R/A169T/A87E/I96F/K41T/L162R/M171V/P40S/Q125H/Q178H/Q39Y/Q99D/R42S/S66Y/T262R/V115G/W38E); settings: Binding affinity DRB1 *1101
DRB1*0405 = DRB1*0405 (Homo sapiens, UniProt P01903+P01911, A100R/A169T/D86S/F76Y/I96L/K127E/L162R/M171V/N62H/P40V/Q125Y/R42H/S133A/S149N/S66Y/V115G/V209L/W38E); format: binding
DRB5*0101 = DRB5*0101 (Homo sapiens, UniProt P01903+Q30154); settings: Binding affinity DRB5 *0101
DRB1*0301 = DRB1*0301 (Homo sapiens, UniProt P01903+P01911, A100K/A102G/A103R/A169T/F55Y/I96L/K41T/L162R/M171V/P40S/Q125H/Q178H/Q39Y/R42S/S66N/T106N/T262R/W38E/Y61H); format: binding
DR1 (DRB1*0101) = DR1 (DRB1*0101) (Homo sapiens, UniProt P01903+P01911, A100R/D57E/F55L/F60I/F76Y/I96L/L162R/M171V/P40L/Q125E/R42F/V115G/Y59C); format: binding
DR7 (DRB1*0701) = DR7 (DRB1*0701) (Homo sapiens, UniProt P01903+P01911, A100R/A102G/A103Q/D57E/D86V/E43K/F76Y/K127E/L162R/M171V/P40G/Q125H/Q99D/R33Q/R42Y/R54Q/S133A/S66F/T210M/V115G/Y107V/Y59L/Y89S); format: binding
DR4w4 (DRB1*0401) = DR4w4 (DRB1*0401) (Homo sapiens, UniProt P01903+P01911, A100K/A169T/F76Y/I96L/K127E/L162R/M171V/N62H/P40V/Q125Y/R42H/S133A/S149N/S66Y/V115G/V209L/W38E); format: binding

Sequence of DRB1*1302 (P01903 26-254 limits assumed, other chains not shown): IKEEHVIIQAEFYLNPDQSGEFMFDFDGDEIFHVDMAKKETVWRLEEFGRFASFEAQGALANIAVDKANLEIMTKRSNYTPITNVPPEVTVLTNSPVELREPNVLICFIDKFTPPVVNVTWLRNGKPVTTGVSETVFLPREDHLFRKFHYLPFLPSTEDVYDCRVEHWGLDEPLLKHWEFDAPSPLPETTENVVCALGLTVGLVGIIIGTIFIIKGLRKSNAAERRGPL
Sequence of DRB1*1101 (P01903 26-254 limits assumed, other chains not shown): as above
Sequence of DRB1*0301 (P01903 26-254 limits assumed, other chains not shown): as above

Row | Compound | IC50 (DRB1*0802) [µM] | IC50 (DRB1*0901) [µM] | IC50 (DRB1*1302) [µM] | IC50 (DRB4*0101) [µM] | IC50 (DRB1*1501) [µM] | IC50 (DRB3*0101) [µM] | IC50 (DRB1*1101) [µM] | IC50 (DRB1*0405) [µM] | IC50 (DRB5*0101) [µM] | IC50 (DRB1*0301) [µM] | IC50 (DR1 (DRB1*0101)) [µM] | IC50 (DR7 (DRB1*0701)) [µM] | IC50 (DR4w4 (DRB1*0401)) [µM]
1 | CC(C)[C@H](NC(=O)[C@H](CCC(=O)O)NC(=O)[C@H](Cc1c[nH]c2ccccc12)NC(=O)[C@@H](NC(=O)CNC(=O)[C@@H](NC(=O)[C@H](CC(N)=O)NC(=O)CNC(=O)[C@H](Cc1ccc(O)cc1)NC(=O)[C@H](CCCCN)NC(=O)[C@@H](N)CCC(=O)O)[C@@H](C)O)[C@@H](C)O)C(=O)N[C@@H](Cc1c[nH]cn1)C(=O)N[C@@H](Cc1ccccc1)C(=O)NCC(=O)N[C@@H](CC(N)=O)C(=O)O [Peptide 1601.11] | > 20 | 2.49 | > 20 | > 20 | > 20 | > 20 | > 20 | 14.7 | > 20 | > 20 | 0.505 | 0.091 | 
2 | CC[C@H](C)[C@H](NC(=O)[C@@H](NC(=O)[C@@H]1CCCN1C(=O)[C@@H](NC(=O)[C@@H](NC(=O)[C@H](CC(N)=O)NC(=O)CNC(=O)[C@H](CO)NC(=O)[C@H](CS)NC(=O)[C@@H](NC(=O)[C@H](CCCCN)NC(=O)[C@@H](N)CCCNC(=N)N)C(C)C)[C@@H](C)O)[C@@H](C)O)[C@@H](C)CC)C(=O)N[C@@H](Cc1c[nH]cn1)C(=O)N[C@@H](CC(C)C)C(=O)N[C@@H](CCCCN)C(=O)O [Peptide 1601.43] | 8.06 | 1.12 | 0.011 | 2.1 | 8.05 | > 20 | > 20 | 9.21 | 18 | > 20 | 1.31 |  | 
3 | DICNTMHYTNWTHIY [Peptide 1601.04] |  | 4.85 | 1.04 | 6.05 |  | 7.2 | > 20 | 2.82 | > 20 | 14.8 | 8.96 | 0.412 | 0.883
4 | FLDVVTIPNSVQISV [Peptide 1601.40] | 14.7 | 9.35 | 0.053 | 2.21 |  | 17.6 | 2.2 | 1.78 | > 20 | 8.36 | 0.551 | 0.492 | 0.017
5 | NCNSNTTPIVHLKGD [Peptide 1601.08] | > 20 | 3.14 |  | 2.64 | > 20 | > 20 | > 20 | > 20 | > 20 | > 20 | 11.5 |  | 3.11
6 | QMMLETLNNTEYKNE [Peptide 1601.22] | > 20 | > 20 | 14.7 | 0.555 | > 20 | > 20 | > 20 | 0.063 | > 20 | 9.64 | > 20 | > 20 | 
7 | SNEVSSPEIIRQHLA [Peptide 1601.06] | > 20 |  |  | 0.013 | 5.36 | > 20 | > 20 | > 20 | > 20 | 4.79 | > 20 | 8.61 | > 20
8 | TYISTSQRDDFLNTV [Peptide 1601.27] | > 20 | 13 |  | 0.48 | > 20 | 6.62 | > 20 | 5.2 | > 20 | 0.152 | > 20 |  | 16.3
9 | YENDSTDLRDHIDYW [Peptide 1601.01] | > 20 | > 20 | > 20 |  | > 20 | 8.55 | > 20 | > 20 | > 20 | 15.8 | > 20 | > 20 | > 20
